Drawing on patent publication US7407963B2, “Cyclopropane CGRP antagonists, medicaments containing these compounds, and method for the production thereof” (Boehringer Ingelheim Pharma GmbH & Co. KG, priority 1999, dated 2008), this text covers melting point for three molecules.

The term melting point denotes the temperature, or range, at which the solid turns liquid.

In turn, `O=C(c1ccc(Cl)cc1)[C@H]1C[C@H]1C(=O)N1CCC(N2Cc3ccccc3NC2=O)CC1` (relative stereo) [Item No. 1, cis-3-{1-[2-(4-chlorobenzoyl)cyclopropanecarbonyl]-4-piperidinyl}-3,4-dihydro-2(1H)-quinazolinone] came in with a melting point of 272 to 273 °C.

For `CN(C)CCOc1ccc2c(c1)CN(C1CCN(C(=O)[C@@H]3C[C@H]3C(=O)c3cc(Br)c(N)c(Br)c3)CC1)C(=O)N2` (relative stereo) [Item No. 16, trans-3-{1-[2-(4-amino-3,5-dibromobenzoyl)cyclopropanecarbonyl]-4-piperidinyl}-3,4-dihydro-6-[2-(dimethylamino)ethoxy]-2(1H)-quinazolinone], the melting point came to 235 °C.

With `Nc1c(Br)cc(C(=O)[C@@H]2C[C@H]2C(=O)N2CCC(n3cc(-c4ccccc4C(F)(F)F)[nH]c3=O)CC2)cc1Br` (relative stereo) [Item No. 18, trans-1-{1-[2-(4-amino-3,5-dibromobenzoyl)cyclopropanecarbonyl]-4-piperidinyl}-1,3-dihydro-4-[2-(trifluoromethyl)phenyl]-2(2H)-imidazolone], the melting point is 248 °C.
